Values quoted from earlier work in patent US20160074380A1, “Treatment Of Neurodegenerative Diseases With Combination Of Laquinimod And Fingolimod” (TEVA PHARMACEUTICAL INDUSTRIES LTD., priority 2014, published 2016).

System: mouse-cultured cortical cells
Conditions: pretreatment; Di Menna, 2013; cited from earlier work

SMILES	protection of neurons against NMDA toxicity
CCCCCCCCCCCCC/C=C/[C@@H](O)[C@@H](N)COP(=O)(O)O [S1P, sphingosine 1-phosphate]	protected neurons against NMDA toxicity
CCCCCCCCc1ccc(CC[C@](N)(CO)COP(=O)(O)O)cc1 [FTY 720-P, fingolimod-phosphate]	protected neurons against NMDA toxicity
